One data set relates to AQP1-null erythrocytes. Nature of the data set: Erythrocyte osmotic water permeability by stopped-flow light scattering, AQP1-null erythrocytes. It counts as cell-based, mouse. As to conditions: 100 mM sucrose gradient, 10 °C. How it is done: Erythrocyte urea and water permeabilities were measured by stopped-flow light scattering using a Hi-Tech Sf-51 instrument (Wiltshire, UK). […] Urea permeability and percentage inhibition were computed as described (see, e.g., Levin et al., FASEB J. supra, 2007)). In some experiments, different urea gradients (25-200 mM) were used, or inhibitor was added only to the erythrocyte-containing or urea-containing solutions. In some experiments an outwardly directed urea gradient was used in which erythrocytes were incubated for 30 min with PBS containing specified urea and mixed in the stopped-flow apparatus with PBS. In reversibility experiments, erythrocytes were incubated for 30 min with inhibitor, washed three times to remove inhibitor, and urea transport assayed. Osmotic water permeability was measured using a 100 mM gradient of sucrose.
Erythrocyte osmotic water permeability was measured by stopped-flow light scattering. […] Life Sci. 52:474-78 (2009)).

For the next data set, the target named is T1, UT-A3 (Mus musculus, UniProt Q8R4T9).
T1 construct: expressed in transfected cells
T1 sequence (Q8R4T9 1-461 isoform Q8R4T9-3): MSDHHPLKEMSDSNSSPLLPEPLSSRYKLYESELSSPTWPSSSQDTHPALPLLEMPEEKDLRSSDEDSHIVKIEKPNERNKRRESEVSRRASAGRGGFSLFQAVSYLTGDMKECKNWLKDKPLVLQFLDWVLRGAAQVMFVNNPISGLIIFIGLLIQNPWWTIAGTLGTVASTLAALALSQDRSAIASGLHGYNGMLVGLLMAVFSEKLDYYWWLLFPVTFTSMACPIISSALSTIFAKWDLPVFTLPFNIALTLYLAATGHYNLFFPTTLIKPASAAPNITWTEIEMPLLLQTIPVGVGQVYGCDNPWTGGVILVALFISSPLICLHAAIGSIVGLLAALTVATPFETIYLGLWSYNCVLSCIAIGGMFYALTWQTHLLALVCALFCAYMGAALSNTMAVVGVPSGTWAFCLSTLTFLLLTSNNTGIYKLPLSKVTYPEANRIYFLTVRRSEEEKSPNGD
Description: Transepithelial urea transport in MDCK cells stably expressing UT-A3. It counts as cell-based. The conditions noted are these: UTBinh-14 10 μM, forskolin. As to the method: (§1) UT-B selectivity and cytotoxicity were studied. Because of sequence similarities between UT-B and UT-A isoforms, UT-A inhibition was measured. Transepithelial urea transport was measured in MDCK cells stably expressing UT-A1, UT-A3, and UT-B. UT-A1 and UT-A3 are cAMP-regulated urea transporters expressed in kidney tubule epithelia (see, e.g., Frohlich et al., Am. J. Physiol. Cell Physiol. 291:C600-606 (2006); Tickle et al., Am. J. Physiol. Regul. Integr. Comp Physiol 0.297: R323-329 (2009); Stewart et al., Am. J. Physiol. Renal Physiol. 292:F1157-63 (2006)). MDCK cells were cultured on collagen-coated porous filters for measurement of urea accumulation in the apical solution following addition of urea to the basolateral solution.
(§2) cDNAs encoding mouse UT-A3 and UT-B were cloned into pcDNA3.1 and used to generate stably transfected MDCK cell lines. MDCK cells stably expressing rat UT-A1 (MDCK-UT-A1) (see, e.g., Frohlich et al., supra) were obtained as described (see, e.g., Levin et al., FASEB J., supra). Cells were cultured in DMEM containing 10% FBS and 0.5 mg/mL G418. […] Urea flux in the basolateral-to-apical direction across unstimulated and forskolin-stimulated cell layers was measured in response to a 15-mM urea gradient. […]

Another data set addresses T2, UT-B (Mus musculus, UniProt Q8VHL0).
T2 sequence (Q8VHL0 1-384): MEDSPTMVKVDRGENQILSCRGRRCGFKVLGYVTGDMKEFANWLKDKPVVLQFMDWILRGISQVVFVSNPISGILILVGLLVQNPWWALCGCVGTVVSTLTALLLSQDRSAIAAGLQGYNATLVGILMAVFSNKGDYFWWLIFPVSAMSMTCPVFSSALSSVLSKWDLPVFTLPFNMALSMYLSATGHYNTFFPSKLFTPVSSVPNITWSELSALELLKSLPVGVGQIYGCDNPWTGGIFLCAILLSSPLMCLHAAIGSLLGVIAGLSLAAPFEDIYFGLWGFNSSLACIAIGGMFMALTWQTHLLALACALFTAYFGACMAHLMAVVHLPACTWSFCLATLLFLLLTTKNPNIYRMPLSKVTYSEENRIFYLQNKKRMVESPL
Description: Transepithelial urea transport in MDCK cells stably expressing UT-B. It counts as cell-based. The conditions noted are these: UTBinh-14 10 μM. How it is done: as §1, §2

The test system of data set [1] is mice. Nature of the data set: Urinary concentration in mice. It counts as in vivo, mouse. As to conditions: 1 week high-protein diet, 300 μg.
In data set [2] the test system is mice. Nature of the data set: Urinary concentration in mice. It counts as in vivo, mouse. How it is done:
In some studies, mice were placed on low, normal or […] diets (4%, 20% or 40% casein, Harlan Labs.) for 1 week prior study of dDAVP effects. […] Urea concentration was determined by a colorimetric enzymatic assay as described above. Measurements were also done in the absence of dDAVP in which urine was collected during free access to food and water. […]

Data set [3] can be described thus: LC/MS analysis of compound in mouse kidney, blood and urine. As to the method:
In some studies, mice were placed on low, normal or […] diets (4%, 20% or 40% casein, Harlan Labs.) for 1 week prior study of dDAVP effects. […] Urea concentration was determined by a colorimetric enzymatic assay as described above. Measurements were also done in the absence of dDAVP in which urine was collected during free access to food and water.
Kidneys were weighed, mixed with acetic acid (100 μL per 1 g tissue) and ethyl acetate (10 mL per 1 g tissue), and homogenized.

The mark [4] stands for this setting: free access to food and water, no dDAVP, 300 μg.
Where [5] appears, read: for several hours following a single intraperitoneal administration.

On to `CCc1ccc(S(=O)(=O)c2nnn3c2nc(NCc2cccs2)c2sccc23)cc1` [UTBinh-14, [3-(4-Ethyl-benzenesulfonyl)-thieno[2,3-e][1,2,3]triazolo[1,5-a]pyrimidin-5-yl]-thiophen-2-ylmethylamine], for which the “water transport in AQP1-null erythrocytes” value in the data set with AQP1-null erythrocytes is given as “inhibited water transport significantly”. Also, the “inhibition of UT-A3 facilitated urea transport” value against UT-A3 was “little inhibition”. In addition, the “inhibition of UT-B facilitated urea transport” value at UT-B is recorded as “strongly inhibited”. Further, the “effect on dDAVP-stimulated urinary concentration, high-protein diet” value in the data set with mice [1] was “robust effect”. Besides, in the data set on mice [2] (300 μg intraperitoneal, dDAVP), the “urine osmolality, UT-B knockout mice” value is “did not significantly reduce” and the “urine urea concentration, UT-B knockout mice” value is given as “did not significantly reduce”. For the same compound, in the data set on mice [2] (300 μg intraperitoneal, dDAVP 1 h later), the “urine osmolality, wild type mice” value is reported as “significantly reduced”. The “effect on dDAVP-stimulated urinary concentration, low-protein diet” value in the data set with mice [2] (1 week low-protein diet, 300 μg) was “little effect”. For the same compound, in the data set with mice [2] (setting [4]), the urine osmolality result was “reduced”, the urine urea concentration result is “reduced” and the urine volume entry is “significantly increased”. In addition, in data set [3] (for at least 4 h after single intraperitoneal 300 μg), the concentration in kidney entry is “greater than 1 μM”. In data set [3] (setting [5]), the concentration in blood entry is reported as “greater than 1 μM” and the concentration in urine entry is reported as “greater than 1 μM”. In addition, the “Peak concentration in kidney” value in data set [3] (single intraperitoneal 300 μg, normalized to kidney water volume) was “approximately 10 μM”.

For the origin of these results see US9303042B2, “Triazolothienopyrimidine compound inhibitors of urea transporters and methods of using inhibitors” (The Regents of the University of California, priority 2012, dated 2016).
